{
  "source": "patent US20260159481A1",
  "about": "“INDOLE DERIVATIVE WITH SUBSTITUENT AND PHARMACEUTICAL USE” (MITOIMMUNE THERAPEUTICS INC., priority 2023, published 2026)",
  "format_in_all_cases": "cell-based",
  "key": {"[1]": {"test_system": "cardiac cells (H9C2)", "test": "Protective effect against cell death due to RSL3 (LDH release), H9C2", "settings": "RSL3 0.5 μM, 24 hours", "method": "(§1) To confirm cell death protection effects on cardiac cells, adrenal medullary cells, renal fibroblasts, retinal epithelial cells, lung epithelial cells, renal proximal tubular epithelial cells, hippocampal neurons and fibroblasts, each type of cells were seeded at 4×10^3 to 1.2×10^4 cells/well in a 96-well plate and cultured for 18 to 24 hours. The example compounds were diluted to have the final concentration of 0.001, 0.003, 0.01, 0.3, 1, 3, and 10 μM, respectively, and then added to different wells and cultured for 15 to 20 minutes. […] To confirm the cell death protection effect of the example compounds, the degree of extracellular secretion of lactate dehydrogenase (LDH) was measured using a cytotoxicity LDH assay kit [Dojindo; CK12]. Briefly, at the end of 24-hour treatment of each type of cells with RSL3, 70 μL of the supernatant was taken from the 96-well plate where the cells were cultured and transferred to a new 96-well plate. The assay buffer included in the kit was added at 70 μL/well (equal to that of the sample) and the plate was covered with foil to block light and allowed to react for 15 to 20 minutes at room temperature. While observing a color change of the sample, 35 µL/well of a stop solution was added, an absorbance at 490 nm was measured using an iD3 spectrophotometer, and an EC50 value was calculated."}, "[2]": {"test_system": "cardiac cells (H9C2)", "test": "Protective effect against t-BHP-induced cell death in cardiac cells (LDH release)", "settings": "Rattus norvegicus, t-BHP 400 PM, 2 hours, read-out: EC50, protective effect against cell death due to t-BHP induction", "in_short": "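H9C2 cells were pretreated 15–20 min with compound at final 0.001–30 PM (so in the source), then exposed to t-BHP at final 400 PM for 2 h. LDH released into supernatant was measured colorimetrically at 490 nm after 15 min room-temperature reaction, and EC50 derived.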"}, "[3]": {"test_system": "MLE-12 cells", "test": "Inhibitory effect on cytosolic ROS (CM-H2DCFDA) under RSL3", "settings": "1 μM RSL3, 2 hours, compound 0.01, 0.1, 1 μM, FIG. 3", "method": "To confirm the protective effect against cyto-ROS in lung epithelial cells, MLE-12 cells were seeded at 2×10^5 cells/well in a 12-well plate, and cultured for 18 to 24 hours. Example Compound 29 and Fer-1 were diluted to have the final concentration of 0.01, 0.1, and 1 μM and added to each well, and the cells were cultured for 10 minutes. Afterward, RSL3 was treated to have the final concentration of 1 M, and the cells were cultured for 2 hours. To confirm the inhibitory effect on cyto-ROS, the general oxidative stress indicator CM-H2DCFDA (Invitrogen™; C6827) was used. According to the manufacturer's protocol, CM-H2DCFDA was diluted in the culture broth to have the final concentration of 5 μM, and fluorescence staining was performed after a 30-minute reaction. The MLE-12 cells that were fluorescence-stained with CM-H2DCFDA were detached from the 12-well plate using 0.25% trypsin-EDTA and transferred to a microtube. Fluorescence (Ex/Em=492˜495 nm/517-527 nm) was measured using BD FACSLyric™, and the relative change compared to the control (RSL3-untreated group) was calculated."}, "[4]": {"test_system": "fibroblasts (NIH/3T3)", "test": "Protective effect against cell death due to RSL3 (LDH release), NIH/3T3", "settings": "24 hours", "method": "as §1"}, "[5]": {"test_system": "MLE-12 cells", "test": "Inhibitory effect on intracellular lipid ROS (BODIPY 581/591 C11) under RSL3", "settings": "1 μM RSL3, 2 hours, compound 0.01, 0.1, 1 μM, FIG. 1", "method": "To confirm the protective effect against intracellular lipid ROS in lung epithelial cells, MLE-12 cells were seeded at 2×10^5 cells/well in a 12-well plate and cultured for 18 to 24 hours. Example Compound 29 and Fer-1 were diluted to have the final concentration of 0.01, 0.1, and 1 μM and added to each well, and the cells were cultured for 10 minutes. Afterward, RSL3 was treated to have the final concentration of 1 μM, and the cells were cultured for 2 hours. To confirm the intracellular inhibitory effect on lipid ROS, the lipid peroxidation sensor BODIPY™ 581/591 C11 (Invitrogen™; D3861) was used. According to the manufacturer's protocol, the BODIPY™ 581/591 C11 was diluted in the culture broth to have the final concentration of […] and treated, and fluorescence staining was performed after a 30-minute reaction. The MILE-12 cells that were fluorescence-stained with BODIPY™ 581/591 C11 were detached from the 12-well plate using 0.25% trypsin-EDTA and transferred to a microtube. Fluorescence (Ex/Em=500-650 nm/510-665 nm) was measured using BD FACSLyric™, and the relative change compared to the control was calculated."}},
  "data": [
    {"smiles": "OCCOCCOCc1cc(NC2CCOCC2)c2[nH]c(-c3ccccc3)cc2c1", "note": "[Example 29, 2-(2-((2-phenyl-7-((tetrahydro-2H-pyran-4-yl)amino)-1H-indol-5-yl)methoxy)ethoxy)ethan-1-ol]", "values": [
      {"measurement": "EC50", "setting": "[1]; Rattus norvegicus", "value": "≤ 100", "unit": "nM"},
      {"measurement": "EC50", "setting": "[2]", "value": "≤ 300", "unit": "nM"},
      {"measurement": "cyto-ROS increased by RSL3 treatment", "setting": "[3]", "value": "significantly reduced lipid ROS levels at 0.1 and 1 μM"},
      {"measurement": "EC50", "setting": "[4]; Mus musculus, NIH3T3, RSL3 3 μM", "value": "100 to 1000", "unit": "nM"},
      {"measurement": "intracellular lipid ROS increased by RSL3 treatment", "setting": "[5]", "value": "significantly decreased at 0.01, 0.1, and 1 μM"}
    ]},
    {"smiles": "CCOC(=O)c1ccc(NC2CCCCC2)c(N)c1", "note": "[Fer-1, ferrostatin-1, reference compound]", "values": [
      {"measurement": "EC50", "setting": "[1]", "value": "≤ 100", "unit": "nM"},
      {"measurement": "cyto-ROS increased by RSL3 treatment", "setting": "[3]", "value": "significantly reduced lipid ROS levels at 0.01, 0.1 and 1 μM"},
      {"measurement": "EC50", "setting": "[4]; RSL3 3 μM", "value": "100 to 1000", "unit": "nM"},
      {"measurement": "intracellular lipid ROS increased by RSL3 treatment", "setting": "[5]", "value": "significantly decreased at 0.01, 0.1, and 1 μM"}
    ]}
  ]
}
